According to US20220160849A1, “CANCER VACCINE FORMULATION” (MIE UNIVERSITY, priority 2019, published 2022):

Test system: mouse melanoma B16F10 cell line expressing TRP2, TRP1, and gp100
Test: Mouse tumor growth test, mouse melanoma B16F10
Format: in vivo, C57BL/6 mouse
Description: A mouse fibrosarcoma CMS5a cell line expressing mERK2, a mouse colorectal cancer cell CT26 cell line expressing AH1 and gp70, or a mouse melanoma B16F10 cell line expressing TRP2, TRP1, and gp100 was subcutaneously transplanted. The CMS5a cell line and the CT26 cell line were each subcutaneously transplanted in an amount of 1×10^6 cultured cells/100 μL/individual to each BALB/c mouse (female: body weight: 15 to 25 g). The B16F10 cell line was subcutaneously transplanted in an amount of […] cultured cells/100 μL/individual to each C57BL/6 mouse (female; body weight: 15 to 25 g). Then, tumor volumes were measured over time.
Each sample of Table 17 was subcutaneously administered with the frequency described in Table 17 to the mouse melanoma B16F10-bearing mice prepared by the method described in Example 5 to conduct a mouse tumor growth test.
Each sample of Table 20 was subcutaneously administered with the frequency described in Table 20 to the mouse melanoma B16F10-bearing mice prepared by the method described in Example 5 to conduct a mouse tumor growth test.
Each sample of Table 21 was subcutaneously administered with the frequency described in Table 21 to the mouse melanoma B16F10-bearing mice prepared by the method described in Example 5 to conduct a mouse tumor growth test.
Each sample of Table 22 was subcutaneously administered with the frequency described in Table 22 to the mouse melanoma B16F10-bearing mice prepared by the method described in Example 5 to conduct a mouse tumor growth test.
Each sample of Table 23 was subcutaneously administered with the frequency described in Table 23 to the mouse melanoma B16F10-bearing mice prepared by the method described in Example 5 to conduct a mouse tumor growth test.

[1] = Example 7-4, FIG. 23, adjuvant (Sting 0.015 mg, R848 0.05 mg) with 99k HA-C6-Chol-42% / TRP2TRP1gp100-6Y 0.05 mg s.c. day 10, 14, 17, 20

With `CCOCc1nc2c(N)nc3ccccc3c2n1CC(C)(C)O` [R848] the “tumor growth suppressive effect (tumor volume)” value (shortened to “tumor growth suppressive effect”) [1] was “high tumor growth suppressive effect”.
In the case of `Nc1nc2c(ncn2C2OC3COP(=O)(S)OC4C(COP(=O)(S)OC2C3O)OC(n2cnc3c(N)ncnc32)C4O)c(=O)[nH]1` (stereo not drawn) [Sting, 2′3′-cGAM(PS)2(Rp/Sp)], the “tumor growth suppressive effect” value [1] is reported as “high tumor growth suppressive effect”.
For polyIC, the “tumor growth suppressive effect” value (Example 7-3, FIG. 22, adjuvant 0.05 mg with 99k HA-C6-Chol-42% / TRP2TRP1gp100-6Y 0.05 mg s.c. day 10, 14, 17, 21) was “high tumor growth suppressive effect”.
